Results taken from the supplement of paper PMC10307832.

Columns and labels:
Assay in all cases: relative viability (nuclei count vs DMSO), 5 days (fraction); higher = more cells survive
Selisistat + Decitabine = compound: C1CC(C2=C(C1)C3=C(N2)C=CC(=C3)Cl)C(=O)N [Selisistat] + Nc1ncn([C@H]2C[C@H](O)[C@@H](CO)O2)c(=O)n1 [Decitabine] (partner 2 µM)
Procedure, shortened: (§1)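 Nuclei were stained with Hoechst during a one-step fixation (final 0.05% Triton X-100, 1% formaldehyde, 1 ug/ml Hoechst) carried out 5 days after dosing, then counted on 4× images. The cells, lung cancer lines in 1536-well plates, had been dosed by pin tool the day after seeding with one drug alone or a fixed anchor-drug dose plus five library-drug doses (not always all listed) in √10 steps. Relative viability is the nuclei count in treated wells divided by that in vehicle wells, and each value is the median of duplicate plates.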

Selisistat + Luminespib = compound: C1CC(C2=C(C1)C3=C(N2)C=CC(=C3)Cl)C(=O)N [Selisistat] + CCNC(=O)c1noc(-c2cc(C(C)C)c(O)cc2O)c1-c1ccc(CN2CCOCC2)cc1 [Luminespib] (partner 0.01 µM)
Procedure, shortened: as §1

Selisistat + Phenformin = compound: C1CC(C2=C(C1)C3=C(N2)C=CC(=C3)Cl)C(=O)N [Selisistat] + N=C(N)NC(=N)NCCc1ccccc1 [Phenformin] (partner 250 µM)
Procedure, shortened: as §1

Serdemetan + Linsitinib = compound: c1ccc2c(CCNc3ccc(Nc4ccncc4)cc3)c[nH]c2c1 [Serdemetan] + C[C@]1(O)C[C@@H](c2nc(-c3ccc4ccc(-c5ccccc5)nc4c3)c3c(N)nccn32)C1 [Linsitinib] (partner 1 µM)
Procedure, shortened: as §1

Cell Line: NCI-H2347
- relative viability (Selisistat + Decitabine; first compound 0.4 µM): 0.695
- relative viability (Selisistat + Decitabine; first compound 1.265 µM): 0.633
- relative viability (Selisistat + Decitabine; first compound 12.65 µM): 0.677
- relative viability (Selisistat + Decitabine; first compound 40 µM): 0.624
- relative viability (Selisistat + Luminespib; first compound 0.4 µM): 0.322
- relative viability (Selisistat + Luminespib; first compound 1.265 µM): 0.406
- relative viability (Selisistat + Luminespib; first compound 4 µM): 0.186
- relative viability (Selisistat + Luminespib; first compound 12.65 µM): 0.283
- relative viability (Selisistat + Luminespib; first compound 40 µM): 1.01
- relative viability (Selisistat + Phenformin; first compound 0.4 µM): 0.4
- relative viability (Selisistat + Phenformin; first compound 1.265 µM): 0.438
- relative viability (Selisistat + Phenformin; first compound 4 µM): 0.228
- relative viability (Selisistat + Phenformin; first compound 12.65 µM): 0.382
- relative viability (Selisistat + Phenformin; first compound 40 µM): 0.276
- relative viability (Serdemetan + Linsitinib; first compound 0.04 µM): 0.753
- relative viability (Serdemetan + Linsitinib; first compound 0.1265 µM): 0.965
- relative viability (Serdemetan + Linsitinib; first compound 0.4 µM): 0.959
- relative viability (Serdemetan + Linsitinib; first compound 1.265 µM): 0.666
- relative viability (Serdemetan + Linsitinib; first compound 4 µM): 0.679

Cell Line: NCI-H2009
- relative viability (Selisistat + Decitabine; first compound 0.4 µM): 0.437
- relative viability (Selisistat + Decitabine; first compound 1.265 µM): 0.338
- relative viability (Selisistat + Decitabine; first compound 4 µM): 0.372
- relative viability (Selisistat + Decitabine; first compound 12.65 µM): 0.45
- relative viability (Selisistat + Decitabine; first compound 40 µM): 0.394
- relative viability (Selisistat + Luminespib; first compound 0.4 µM): 1.07
- relative viability (Selisistat + Luminespib; first compound 1.265 µM): 1.05
- relative viability (Selisistat + Luminespib; first compound 12.65 µM): 0.944
- relative viability (Selisistat + Luminespib; first compound 40 µM): 0.944
- relative viability (Selisistat + Phenformin; first compound 0.4 µM): 0.509
- relative viability (Selisistat + Phenformin; first compound 1.265 µM): 0.483
- relative viability (Selisistat + Phenformin; first compound 4 µM): 0.366
- relative viability (Selisistat + Phenformin; first compound 12.65 µM): 0.449
- relative viability (Selisistat + Phenformin; first compound 40 µM): 0.422
- relative viability (Serdemetan + Linsitinib; first compound 0.04 µM): 1.18
- relative viability (Serdemetan + Linsitinib; first compound 0.1265 µM): 1.2
- relative viability (Serdemetan + Linsitinib; first compound 0.4 µM): 1.13
- relative viability (Serdemetan + Linsitinib; first compound 1.265 µM): 1
- relative viability (Serdemetan + Linsitinib; first compound 4 µM): 0.979

Cell Line: HCC-15
- relative viability (Selisistat + Decitabine; first compound 0.4 µM): 0.695
- relative viability (Selisistat + Decitabine; first compound 1.265 µM): 0.739
- relative viability (Selisistat + Decitabine; first compound 12.65 µM): 0.737
- relative viability (Selisistat + Decitabine; first compound 40 µM): 0.79
- relative viability (Selisistat + Luminespib; first compound 0.4 µM): 0.329
- relative viability (Selisistat + Luminespib; first compound 1.265 µM): 0.205
- relative viability (Selisistat + Luminespib; first compound 12.65 µM): 0.373
- relative viability (Selisistat + Luminespib; first compound 40 µM): 0.319
- relative viability (Selisistat + Phenformin; first compound 0.4 µM): 0.515
- relative viability (Selisistat + Phenformin; first compound 1.265 µM): 0.524
- relative viability (Selisistat + Phenformin; first compound 12.65 µM): 0.44
- relative viability (Selisistat + Phenformin; first compound 40 µM): 0.501
- relative viability (Serdemetan + Linsitinib; first compound 0.04 µM): 0.861
- relative viability (Serdemetan + Linsitinib; first compound 0.1265 µM): 0.893
- relative viability (Serdemetan + Linsitinib; first compound 0.4 µM): 0.797
- relative viability (Serdemetan + Linsitinib; first compound 1.265 µM): 0.647
- relative viability (Serdemetan + Linsitinib; first compound 4 µM): 0.62

Cell Line: HCC-44
- relative viability (Selisistat + Decitabine; first compound 0.4 µM): 0.976
- relative viability (Selisistat + Decitabine; first compound 1.265 µM): 1.01
- relative viability (Selisistat + Decitabine; first compound 4 µM): 0.943
- relative viability (Selisistat + Decitabine; first compound 12.65 µM): 1.01
- relative viability (Selisistat + Decitabine; first compound 40 µM): 1.07
- relative viability (Selisistat + Luminespib; first compound 0.4 µM): 1.05
- relative viability (Selisistat + Luminespib; first compound 12.65 µM): 1.12
- relative viability (Selisistat + Luminespib; first compound 40 µM): 1.16
- relative viability (Selisistat + Phenformin; first compound 0.4 µM): 0.159
- relative viability (Selisistat + Phenformin; first compound 4 µM): 0.168
- relative viability (Selisistat + Phenformin; first compound 12.65 µM): 0.226
- relative viability (Selisistat + Phenformin; first compound 40 µM): 0.353
- relative viability (Serdemetan + Linsitinib; first compound 0.04 µM): 0.637
- relative viability (Serdemetan + Linsitinib; first compound 0.1265 µM): 0.634
- relative viability (Serdemetan + Linsitinib; first compound 0.4 µM): 0.598
- relative viability (Serdemetan + Linsitinib; first compound 1.265 µM): 0.426
- relative viability (Serdemetan + Linsitinib; first compound 4 µM): 0.424

Cell Line: COR-L23
- relative viability (Selisistat + Decitabine; first compound 0.4 µM): 0.596
- relative viability (Selisistat + Decitabine; first compound 1.265 µM): 0.423
- relative viability (Selisistat + Decitabine; first compound 4 µM): 0.484
- relative viability (Selisistat + Decitabine; first compound 12.65 µM): 0.436
- relative viability (Selisistat + Decitabine; first compound 40 µM): 0.411
- relative viability (Selisistat + Luminespib; first compound 0.4 µM): 0.709
- relative viability (Selisistat + Luminespib; first compound 1.265 µM): 0.715
- relative viability (Selisistat + Luminespib; first compound 4 µM): 0.641
- relative viability (Selisistat + Luminespib; first compound 12.65 µM): 0.655
- relative viability (Selisistat + Luminespib; first compound 40 µM): 0.61
- relative viability (Selisistat + Phenformin; first compound 0.4 µM): 0.443
- relative viability (Selisistat + Phenformin; first compound 1.265 µM): 0.43
- relative viability (Selisistat + Phenformin; first compound 4 µM): 0.458
- relative viability (Selisistat + Phenformin; first compound 12.65 µM): 0.424
- relative viability (Selisistat + Phenformin; first compound 40 µM): 0.441
- relative viability (Serdemetan + Linsitinib; first compound 0.04 µM): 0.906
- relative viability (Serdemetan + Linsitinib; first compound 0.1265 µM): 0.752
- relative viability (Serdemetan + Linsitinib; first compound 0.4 µM): 0.891
- relative viability (Serdemetan + Linsitinib; first compound 1.265 µM): 0.688
- relative viability (Serdemetan + Linsitinib; first compound 4 µM): 0.788

Cell Line: NCI-H727
- relative viability (Selisistat + Decitabine; first compound 0.4 µM): 0.851
- relative viability (Selisistat + Decitabine; first compound 1.265 µM): 0.891
- relative viability (Selisistat + Decitabine; first compound 4 µM): 0.446
- relative viability (Selisistat + Decitabine; first compound 12.65 µM): 0.898
- relative viability (Selisistat + Decitabine; first compound 40 µM): 0.818
- relative viability (Selisistat + Luminespib; first compound 0.4 µM): 0.389
- relative viability (Selisistat + Luminespib; first compound 1.265 µM): 0.231
- relative viability (Selisistat + Luminespib; first compound 12.65 µM): 0.268
- relative viability (Selisistat + Luminespib; first compound 40 µM): 0.349
- relative viability (Selisistat + Phenformin; first compound 0.4 µM): 0.564
- relative viability (Selisistat + Phenformin; first compound 1.265 µM): 0.534
- relative viability (Selisistat + Phenformin; first compound 12.65 µM): 0.398
- relative viability (Selisistat + Phenformin; first compound 40 µM): 0.478
- relative viability (Serdemetan + Linsitinib; first compound 0.04 µM): 0.286
- relative viability (Serdemetan + Linsitinib; first compound 0.1265 µM): 0.238
- relative viability (Serdemetan + Linsitinib; first compound 0.4 µM): 0.28
- relative viability (Serdemetan + Linsitinib; first compound 1.265 µM): 0.124
- relative viability (Serdemetan + Linsitinib; first compound 4 µM): 0.191

Cell Line: NCI-H2087
- relative viability (Selisistat + Decitabine; first compound 0.4 µM): 0.34
- relative viability (Selisistat + Decitabine; first compound 1.265 µM): 0.295
- relative viability (Selisistat + Decitabine; first compound 12.65 µM): 0.263
- relative viability (Selisistat + Decitabine; first compound 40 µM): 0.234
- relative viability (Selisistat + Luminespib; first compound 0.4 µM): 0.157
- relative viability (Selisistat + Luminespib; first compound 1.265 µM): 0.139
- relative viability (Selisistat + Luminespib; first compound 12.65 µM): 0.147
- relative viability (Selisistat + Luminespib; first compound 40 µM): 0.158
- relative viability (Selisistat + Phenformin; first compound 0.4 µM): 0.54
- relative viability (Selisistat + Phenformin; first compound 1.265 µM): 0.455
- relative viability (Selisistat + Phenformin; first compound 12.65 µM): 0.44
- relative viability (Selisistat + Phenformin; first compound 40 µM): 0.472
- relative viability (Serdemetan + Linsitinib; first compound 0.04 µM): 0.907
- relative viability (Serdemetan + Linsitinib; first compound 0.1265 µM): 0.842
- relative viability (Serdemetan + Linsitinib; first compound 0.4 µM): 0.945
- relative viability (Serdemetan + Linsitinib; first compound 1.265 µM): 0.608
- relative viability (Serdemetan + Linsitinib; first compound 4 µM): 0.505

Cell Line: BEN
- relative viability (Selisistat + Decitabine; first compound 0.4 µM): 0.923
- relative viability (Selisistat + Decitabine; first compound 1.265 µM): 0.556
- relative viability (Selisistat + Decitabine; first compound 4 µM): 0.479
- relative viability (Selisistat + Decitabine; first compound 12.65 µM): 0.707
- relative viability (Selisistat + Decitabine; first compound 40 µM): 0.691
- relative viability (Selisistat + Luminespib; first compound 0.4 µM): 0.429
- relative viability (Selisistat + Luminespib; first compound 1.265 µM): 0.242
- relative viability (Selisistat + Luminespib; first compound 4 µM): 0.33
- relative viability (Selisistat + Luminespib; first compound 12.65 µM): 0.207
- relative viability (Selisistat + Luminespib; first compound 40 µM): 0.383
- relative viability (Selisistat + Phenformin; first compound 0.4 µM): 0.246
- relative viability (Selisistat + Phenformin; first compound 1.265 µM): 0.286
- relative viability (Selisistat + Phenformin; first compound 4 µM): 0.256
- relative viability (Selisistat + Phenformin; first compound 12.65 µM): 0.239
- relative viability (Selisistat + Phenformin; first compound 40 µM): 0.275
- relative viability (Serdemetan + Linsitinib; first compound 0.04 µM): 0.857
- relative viability (Serdemetan + Linsitinib; first compound 0.1265 µM): 0.929
- relative viability (Serdemetan + Linsitinib; first compound 0.4 µM): 0.956
- relative viability (Serdemetan + Linsitinib; first compound 1.265 µM): 0.875
- relative viability (Serdemetan + Linsitinib; first compound 4 µM): 0.679

Cell Line: LCLC-103H
- relative viability (Selisistat + Decitabine; first compound 0.4 µM): 0.782
- relative viability (Selisistat + Decitabine; first compound 1.265 µM): 0.77
- relative viability (Selisistat + Decitabine; first compound 4 µM): 0.7
- relative viability (Selisistat + Decitabine; first compound 12.65 µM): 0.729
- relative viability (Selisistat + Decitabine; first compound 40 µM): 0.75
- relative viability (Selisistat + Luminespib; first compound 0.4 µM): 1.06
- relative viability (Selisistat + Luminespib; first compound 1.265 µM): 0.936
- relative viability (Selisistat + Luminespib; first compound 4 µM): 0.926
- relative viability (Selisistat + Luminespib; first compound 12.65 µM): 0.863
- relative viability (Selisistat + Luminespib; first compound 40 µM): 1.06
- relative viability (Selisistat + Phenformin; first compound 0.4 µM): 0.339
- relative viability (Selisistat + Phenformin; first compound 1.265 µM): 0.338
- relative viability (Selisistat + Phenformin; first compound 4 µM): 0.334
- relative viability (Selisistat + Phenformin; first compound 12.65 µM): 0.351
- relative viability (Selisistat + Phenformin; first compound 40 µM): 0.355
- relative viability (Serdemetan + Linsitinib; first compound 0.04 µM): 0.81
- relative viability (Serdemetan + Linsitinib; first compound 0.1265 µM): 1.06
- relative viability (Serdemetan + Linsitinib; first compound 0.4 µM): 1.09
- relative viability (Serdemetan + Linsitinib; first compound 1.265 µM): 0.918
- relative viability (Serdemetan + Linsitinib; first compound 4 µM): 0.778
